# Assay results reported in ChEMBL document CHEMBL1201862, “PubChem BioAssay data set” (2004).
# Active and inactive are the calls of the source.
# Columns and labels:
# [1] = intracellular Trypanosoma cruzi inhibitors in host cells – cell-based, plate reader, cherry-pick samples, set 3, dose response (AID 651818); type: functional;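 also: compounds incubated with infected cells for about four days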
# SN12K1 = assay: cells; type: functional; settings: Homo sapiens
# P388 = assay: cells; type: functional; settings: Mus musculus
# P388/ADR = assay: cells; type: functional; settings: Mus musculus
# [2] = Shn3 3'UTR reporter inhibitors, dose response, cell-based, Clone20 osteoblasts, firefly luciferase, cherry-picked (AID 624132); type: functional;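 also: firefly luciferase luminescence from reporter carrying the Shn3 3'UTR in osteoblasts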
# [3] = control 3'UTR Renilla luciferase suppression, dose response, counter-screen for Shn3 inhibitor project, cell-based, Clone20-Shn3RL, cherry-picked (AID 624133); type: functional
# [4] = target: FAD-linked sulfhydryl oxidase ALR (Homo sapiens, UniProt P55789); assay: inhibitors of human ALR sulfhydryl oxidase, dose response, biochemical, H2O2 detection, luminescence, cherry-pick (AID 493248)
# BJ [5] = assay: cells; type: functional, cell-based; settings: Homo sapiens
# BJ [6] = assay: cytotoxicity toward BJ-TERT fibroblasts, dose response, cell-based, RAS-independent, luminescence (AID 1933); type: functional; settings: Homo sapiens
# [7] = cytotoxicity toward DRD oncogenic fibroblasts, dose response, cell-based, non-viral oncogenic, luminescence (AID 1934); type: functional; settings: Homo sapiens
# BJ [8] = assay: cytotoxicity toward BJ-TERT-LT-ST fibroblasts, dose response, cell-based, RAS-independent, luminescence (AID 1935); type: functional; settings: Homo sapiens;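 also: BJ fibroblasts immortalized with TERT plus LT and ST oncogenes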
# [9] = HepG2 cell cytotoxicity, dose response, cytotoxicity control for Shn3 inhibitor project, CellTiter-Glo, cherry-picked (AID 624134); type: functional, cell-based
# [10] = target: T1, Heat shock factor protein 1 (Mus musculus, UniProt P38532); assay: HSF1 potentiators in luciferase reporter cells, confirmation, cell-based, NIH3T3, luminescence, dose retest (AID 435004); type: functional;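 also: stress induced by proteasome inhibitor MG132 added 30 min after compound; luciferase reporter driven by HSF1 response element in NIH3T3 cells; actives raise luminescence as potentiators of the MG132 stress response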
# T1 sequence (P38532 whole entry): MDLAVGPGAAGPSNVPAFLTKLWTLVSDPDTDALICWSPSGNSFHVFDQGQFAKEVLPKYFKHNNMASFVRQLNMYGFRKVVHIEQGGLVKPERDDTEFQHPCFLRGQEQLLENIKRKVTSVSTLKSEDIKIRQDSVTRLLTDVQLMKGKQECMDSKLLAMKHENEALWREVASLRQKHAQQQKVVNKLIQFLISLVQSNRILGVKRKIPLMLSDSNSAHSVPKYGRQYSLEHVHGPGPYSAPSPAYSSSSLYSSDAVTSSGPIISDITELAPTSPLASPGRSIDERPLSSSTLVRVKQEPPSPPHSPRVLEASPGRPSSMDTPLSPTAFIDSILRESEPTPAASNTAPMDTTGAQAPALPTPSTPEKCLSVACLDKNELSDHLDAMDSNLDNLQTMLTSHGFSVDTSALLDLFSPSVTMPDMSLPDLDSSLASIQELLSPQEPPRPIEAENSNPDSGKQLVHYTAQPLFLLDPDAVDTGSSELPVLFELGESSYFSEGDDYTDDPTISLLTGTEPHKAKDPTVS
# [11] = target: T2, Replicative DNA helicase DnaB (Mycobacterium tuberculosis, UniProt P9WMR3); assay: DnaB intein splicing inhibitors, dose response, biochemical, cell-free fluorescence (AID 449749); type: functional
# T2 sequence (P9WMR3 whole entry): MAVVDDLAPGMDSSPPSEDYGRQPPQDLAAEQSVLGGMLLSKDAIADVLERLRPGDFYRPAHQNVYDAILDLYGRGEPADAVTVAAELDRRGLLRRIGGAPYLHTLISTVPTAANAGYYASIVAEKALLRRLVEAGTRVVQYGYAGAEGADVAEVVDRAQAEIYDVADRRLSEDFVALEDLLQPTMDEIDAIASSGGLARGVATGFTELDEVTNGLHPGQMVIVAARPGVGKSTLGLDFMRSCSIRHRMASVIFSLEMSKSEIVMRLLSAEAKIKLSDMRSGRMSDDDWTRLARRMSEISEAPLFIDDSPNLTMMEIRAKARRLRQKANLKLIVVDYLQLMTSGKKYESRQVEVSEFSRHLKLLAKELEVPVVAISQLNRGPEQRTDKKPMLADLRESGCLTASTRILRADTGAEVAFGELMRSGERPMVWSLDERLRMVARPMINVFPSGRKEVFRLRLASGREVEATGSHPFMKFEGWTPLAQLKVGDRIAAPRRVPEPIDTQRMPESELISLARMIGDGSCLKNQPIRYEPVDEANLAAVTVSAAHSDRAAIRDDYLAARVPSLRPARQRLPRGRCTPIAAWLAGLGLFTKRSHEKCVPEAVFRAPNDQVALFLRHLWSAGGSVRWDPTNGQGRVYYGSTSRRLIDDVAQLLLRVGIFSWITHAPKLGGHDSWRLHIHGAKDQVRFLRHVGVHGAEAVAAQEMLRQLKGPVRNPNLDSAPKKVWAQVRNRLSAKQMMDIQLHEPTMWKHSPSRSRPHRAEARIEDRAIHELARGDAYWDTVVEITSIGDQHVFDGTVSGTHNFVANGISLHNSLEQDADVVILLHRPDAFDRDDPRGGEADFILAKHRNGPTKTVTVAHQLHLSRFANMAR
# Protein RecA = target: T3, Protein RecA (Mycobacterium tuberculosis, UniProt P9WHJ3); assay: Fluorescence Cell-Free Homogeneous Dose Retest to Identify Inhibitors of RecA-Intein Splicing Activity. [Related pubchem assays (depositor defined):AID2097, AID2223, AID489010, AID492950]; type: functional
# T3 sequence (P9WHJ3 whole entry): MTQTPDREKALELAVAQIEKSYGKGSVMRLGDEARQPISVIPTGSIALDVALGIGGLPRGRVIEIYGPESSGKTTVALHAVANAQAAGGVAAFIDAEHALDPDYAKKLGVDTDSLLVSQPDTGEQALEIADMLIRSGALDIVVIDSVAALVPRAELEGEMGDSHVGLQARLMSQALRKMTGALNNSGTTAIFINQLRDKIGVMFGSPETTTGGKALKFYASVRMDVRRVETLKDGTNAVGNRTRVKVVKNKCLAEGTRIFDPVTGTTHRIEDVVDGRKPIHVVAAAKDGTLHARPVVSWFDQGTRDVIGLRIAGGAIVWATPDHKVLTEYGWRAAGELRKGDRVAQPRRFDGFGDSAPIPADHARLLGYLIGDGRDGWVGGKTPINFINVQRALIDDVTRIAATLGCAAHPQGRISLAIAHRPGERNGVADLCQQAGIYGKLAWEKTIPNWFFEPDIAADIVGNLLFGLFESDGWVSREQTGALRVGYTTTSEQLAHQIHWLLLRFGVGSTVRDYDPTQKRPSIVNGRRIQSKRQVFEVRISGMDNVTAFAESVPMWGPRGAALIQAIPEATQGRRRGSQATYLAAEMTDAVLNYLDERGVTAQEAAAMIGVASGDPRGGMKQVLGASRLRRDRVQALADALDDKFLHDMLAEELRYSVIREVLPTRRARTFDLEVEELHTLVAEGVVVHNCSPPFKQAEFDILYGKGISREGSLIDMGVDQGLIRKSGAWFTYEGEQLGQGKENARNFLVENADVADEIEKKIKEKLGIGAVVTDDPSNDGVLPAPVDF
# INS1 = assay: beta cell apoptosis inhibitors, cytokine rescue, dose response, luminescence, retest (AID 449756); type: functional, cell-based; settings: Rattus norvegicus;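 also: cell death triggered by IL-1 beta plus TNF-alpha plus IFN-gamma mixture; protective hits raise ATP signal compared with cytokine alone wells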
# [12] = inhibitors of firefly luciferase expression or activity, dose response, H4 neuroglioma cells, luminescence (AID 1990); type: functional, cell-based
# [13] = inhibitors of SNCA 5'UTR-driven reporter translation, confirmation, H4 neuroglioma cells, luminescence (AID 1988); type: functional, cell-based
# [14] = Luminescence Cell-Based Dose Response HTS to Identify Inhibitors of 5'UTR Stem-Loop Driven Prion Protein mRNA Translation in H4 Neuroglioblastoma Cells. [Related pubchem assays: 1827 (Project Summary), 1813 (Primary HTS)]; type: functional
# Chain of FAD-linked sulfhydryl oxidase ALR (P55789 whole entry): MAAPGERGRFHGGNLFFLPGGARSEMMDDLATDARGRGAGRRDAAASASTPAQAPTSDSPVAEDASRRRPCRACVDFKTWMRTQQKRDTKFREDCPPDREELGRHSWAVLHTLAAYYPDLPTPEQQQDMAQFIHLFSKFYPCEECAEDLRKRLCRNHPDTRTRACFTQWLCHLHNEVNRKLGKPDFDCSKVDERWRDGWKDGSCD
smiles,measurement,setting,value
C[C@@H]1CN([C@H](C)CO)C(=O)Cc2cc(NC(=O)Nc3cccc4ccccc34)ccc2O[C@@H]1CN(C)Cc1ccc(Cl)c(Cl)c1,AC50,[1],2.53 µM (active)
CCOC(=O)COc1ccccc1/C=C1\CCC(CN(C)C)C1=O (centres undefined),GI50,SN12K1,1.87 µM (inactive)
same,GI50,P388,0.342 µM (active)
same,GI50,P388/ADR,0.436 µM (active)
C=CCNc1nc(N2CCOCC2)c(C#N)c2c1CN(C)CC2,AC50,[2],> 70 µM (inactive)
same,AC50,[3],28.2 µM (active)
O=C(N/N=C/c1cc(I)cc(I)c1O)c1ccccn1,AC50,[1],1.12 µM (active)
COc1cccc(CNn2cnnc2)c1O,AC50,[4],2.23 µM (active)
O=C(Nc1ccc(Cl)cn1)c1cccc(F)c1,EC50,BJ [5],35.6 µM (active)
same,EC50,BJ [6],18.4 µM (active)
same,EC50,[7],18.4 µM (active)
same,EC50,BJ [8],> 150 µM (inconclusive)
C=CCNc1nc(N2CCCCC2)c(C#N)c2c1CN(Cc1ccccc1)CC2,AC50,[9],> 70 µM (inactive)
same,AC50,[2],16.8 µM (active)
same,AC50,[3],28.9 µM (active)
O=C(C1CCCCC1)N1CCN=C1SCc1cccnc1,AC50,[4],0.097 µM (active)
CC12CCC3C(CCC4(O)C=CCCC34C=O)C1(O)CC(O)C2c1ccc(=O)oc1 (centres undefined),GI50,SN12K1,0.0624 µM (active)
same,GI50,P388,336 µM (inactive)
same,GI50,P388/ADR,> 500 µM (inactive)
Cc1ccc(C)c(NC(=O)CN(C)C(=O)c2cccc(S(=O)(=O)N3CCN(Cc4ccccc4)CC3)c2)c1,AC50,[9],62.2 µM (active)
same,AC50,[2],3.5 µM (active)
same,AC50,[3],5.74 µM (active)
O=C(Nc1ccc(F)c(F)c1)c1ccc(F)c(S(=O)(=O)N2CCC3(CC2)OCCO3)c1,AC50,[9],42.3 µM (active)
same,AC50,[2],12.2 µM (active)
same,AC50,[3],11.2 µM (active)
CCCCNC1C(CC)C(CCC)C(C#N)(C#N)C1(C#N)C#N (centres undefined),EC50,[10],11.1 µM (active)
same,AC50,[11],> 380 µM (inactive)
same,EC50,Protein RecA,2.36 µM (active)
Cc1ccc(S(=O)(=O)N2CCN(c3ncnc4ccccc34)CC2)cc1,AC50,[9],4.03 µM (active)
same,AC50,INS1,4.61 µM (active)
same,AC50,[2],1.56 µM (active)
same,AC50,[3],13.7 µM (active)
O=[N+]([O-])c1ccc(Nc2cccc3c4cc[nH]c(-c5ccccc5)c-4nc23)c([N+](=O)[O-])c1,GI50,SN12K1,10 µM (inactive)
same,GI50,P388,20.1 µM (inactive)
same,GI50,P388/ADR,14.3 µM (inactive)
CN(C)CCNc1c([N+](=O)[O-])cc2c3c(cccc13)C(=O)N(CCN(C)C)C2=O,GI50,SN12K1,7.83 µM (inactive)
same,GI50,P388,0.925 µM (active)
same,GI50,P388/ADR,1.87 µM (inactive)
COc1ccc(NC2CCCN(C(=O)c3cn(C)c4ccccc34)C2)cc1 (centres undefined),AC50,[4],3.1 µM (active)
CC1(C)S[C@@H]2[C@H](NC(=O)CCC[C@@H](N)C(=O)O)C(=O)N2[C@H]1C(=O)O [ADICILLIN],GI50,SN12K1,> 50 µM (inactive)
same,GI50,P388,> 50 µM (inactive)
same,GI50,P388/ADR,> 50 µM (inactive)
O=S1(=O)N2CN3CN(C2)CN1C3,GI50,SN12K1,> 100 µM (inactive)
same,GI50,P388,18.5 µM (inactive)
same,GI50,P388/ADR,21.2 µM (inactive)
Cc1[nH]c2ccccc2c1/C=N/NC(=O)Cc1cccs1,AC50,[4],4.46 µM (active)
O=Cc1cccnc1SCc1ccccc1,EC50,BJ [5],16.3 µM (active)
same,EC50,BJ [6],10.5 µM (active)
same,EC50,[7],21.3 µM (active)
same,EC50,BJ [8],11.1 µM (inconclusive)
O=C(O)CCC(NC(=O)c1ccc(Nc2cnc3cc(C(F)(F)F)ccc3n2)cc1)C(=O)O (centres undefined),GI50,SN12K1,> 100 µM (inactive)
same,GI50,P388,> 100 µM (inactive)
same,GI50,P388/ADR,> 100 µM (inactive)
O=C(NC1CC1)c1ccc(CSCc2ccccc2Cl)o1,AC50,[4],0.549 µM (active)
CCCCNC(=O)c1ccc(CS(=O)(=O)c2ccc(C)cc2)o1,AC50,[4],15.6 µM (active)
CC1(CO)C(O)CCC2(C)C1CCC1CC3CC12CCC3(O)CO (centres undefined),GI50,SN12K1,1.16 µM (inactive)
same,GI50,P388,0.394 µM (active)
same,GI50,P388/ADR,0.42 µM (active)
Cc1c(C2=NN=C(/N=N/c3c(O)cccc3O)/C2=C/c2ccccc2)c(=O)n(-c2ccccc2)n1C,GI50,SN12K1,> 100 µM (inactive)
same,GI50,P388,> 100 µM (inactive)
same,GI50,P388/ADR,> 100 µM (inactive)
C=CCNC(=O)C(C)C1CCC2(C)C=CC(=O)C(C)=C2C1O (centres undefined),GI50,SN12K1,> 100 µM (inactive)
same,GI50,P388,> 100 µM (inactive)
same,GI50,P388/ADR,> 100 µM (inactive)
CSCC[C@H](NC(=O)N1CCn2c1nc1ccccc12)C(=O)NCc1ccco1,AC50,[4],6.97 µM (active)
COc1ccc(C)cc1NC(=O)CNC(c1ccccc1)c1ccc(C)cc1 (centres undefined),EC50,BJ [5],50.2 µM (inconclusive)
same,EC50,[12],10.3 µM (active)
same,EC50,BJ [6],2.53 µM (active)
same,EC50,[13],0.205 µM (active)
same,EC50,[7],1.39 µM (active)
same,EC50,BJ [8],2.79 µM (active)
CCOC(=O)C(C)NC(=O)N(C)C12CC3CC(CC(C3)C1)C2 (centres undefined),GI50,SN12K1,190 µM (inactive)
same,GI50,P388,52.2 µM (inactive)
same,GI50,P388/ADR,123 µM (inactive)
COc1cc(NC(=O)COc2cccc3c2OC(C)(C)C3)cc(OC)c1OC,AC50,[2],4.38 µM (active)
same,AC50,[3],3.03 µM (active)
COc1cccc(N2CCN(C(=O)c3ccc(C[S+]([O-])c4ccc(Cl)cc4)o3)CC2)c1 (centres undefined),EC50,[12],4.79 µM (inconclusive)
same,EC50,[14],6.76 µM (active)
same,EC50,[13],0.67 µM (active)
same,AC50,[4],3.44 µM (active)
Sc1nc2ccc(Cl)cc2s1,AC50,[4],2.39 µM (active)
CC(C)=CCc1c(O)ccc2c1OC1c3ccc(O)c(CC=C(C)C)c3OCC21 (centres undefined),GI50,SN12K1,4.92 µM (inactive)
same,GI50,P388,5.55 µM (inactive)
same,GI50,P388/ADR,7.31 µM (inactive)
